The values that follow come from patent publication US6509348B1, “Combination of an ADP-receptor blocking antiplatelet drug and a thromboxane A2 receptor antagonist and a method for inhibiting thrombus formation employing such combination” (Bristol-Myers Squibb Company, priority 1998, dated 2003).

The term inhibition denotes the change of the read-out against control, counted positive when it falls.

SMILES strings stand for the structures. Entries after “also recorded” stand apart in the source; their conditions may differ. Read-outs that look alike come from different tables or passages of the source.

Experiment [1] concerns vessel injury-induced venous thrombosis. The following applies: cited from earlier work; for activity in vessel injury-induced venous thrombosis model: aspirin, previous experiments.
Experiment [2] deals with stasis-induced vena cava thrombosis. As to conditions: cited from earlier work.
Experiment [3] deals with vessel injury-induced venous thrombosis. The experiment in a line: FeCl2 vessel injury-induced vena cava thrombosis in rats. In kind it is in vivo, rat. The protocol:
Thrombosis Procedure. Male Sprague Dawley rats (350-450 g) were anesthetized with sodium pentobarbital (50 mg/kg i.p.). A jugular vein was cannulated for drug infusion or anesthetic supplementation, and the trachea was intubated to ensure airway patency. The vena cava was isolated by a midline abdominal incision and cleared of connective tissue. A fiberoptic probe (model P-433-10, 0.8 mm tip diameter) was placed on the dorsal surface of the vena cava distal to the renal veins and attached to a laser doppler blood perfusion monitor (model BPM 430-2, Vasamedics, St. Paul, Minn.). When baseline flow had stabilized, a 2 mm×5 mm strip of filter paper was saturated in 15% FeCl2 and placed on the vena cava downstream from the flow probe for 1 min. The vena cava was dissected free 60 min after filter paper application and opened lengthwise. The thrombus was removed to determine wet and dry thrombus weights on a Sartorius R-160P balance (Brinkmann Instruments Inc., Westbury, N.Y.). Blood flow was monitored on an R-611 physiological recorder (Sensor Medics, Anaheim, Calif.). Total blood flow was calculated by planimetry and normalized as percent of baseline flow (0 min=100%) over 60 min.
(§1) Drug treatments. There were 3 separate studies. In the first study rats were dosed once daily for 3 days with an oral gavage of either saline (n=6) or clopidogrel 3 (n=5), 10 (n=5), 20 (n=4) mg/kg). One hour after the last dose, rats were anethetized for the thrombosis protocol or blood was obtained for ex vivo testing of platelet function and whole blood coagulation. In the second study a continuous i.v. infusion of either saline or ifetroban (150 μg/kg/min) was administered starting 15 min before FeCl2-induced injury of the vena cava. In the third study, rats were treated with saline or clopidogrel (2 mg/kg per day for 3 days) and administered either saline or ifetroban (150 μg/kg/min) starting 15 min before FeCl2 application.

For experiment [4], the system named is whole blood coagulation. The following applies: clopidogrel orally once daily for 3 days. The protocol: (§2) Ex Vivo Platelet Function and Coagulation Testing. Male Sprague Dawley rats (350-450 g) were anesthetized with sodium pentobarbital (50 mg/kg i.p.) The vena cava was isolated by a midline abdominal incision and 5 to 8 ml of blood was withdrawn into a 1/10th volume of 3.8% Na citrate. A portion of each blood sample was centrifuged for 3 sec in a Microcentrifuge E (Beckman, Palo Alto, Calif., USA) to prepare platelet rich plasma (PRP) and for 3 min to prepare platelet poor plasma (PPP). The PRP was adjusted to a count of ˜450×10^3 platelets per […] by adding PPP.
as §1

The subject of experiment [5] is ADP-induced platelet aggregation. The experiment in a line: animal or person. The method, then: as §2
Platelet aggregation responses of PRP to ADP (1,3 and 10 μM; Chrono-Log Corp., Havertown, Pa., USA) were determined using the photometric technique described for a model 540 aggregometer (Chrono-Log Corp.).
as §1

The subject of experiment [6] is carotid artery thrombosis. The following applies: clopidogrel 10 mg/kg.
Experiment [7] relates to stasis-induced vena cava thrombosis. The experiment in a line: Stasis-induced (uncomplicated) vena cava thrombosis. Type of experiment: in vivo, rat.
Experiment [8] deals with T1, rat platelet thromboxane A2 receptors (Rattus norvegicus, UniProt P34978).
T1 construct: rat platelet thromboxane A2 receptors; host or cells: rat platelets (endogenous)
T1 sequence (P34978 1-341): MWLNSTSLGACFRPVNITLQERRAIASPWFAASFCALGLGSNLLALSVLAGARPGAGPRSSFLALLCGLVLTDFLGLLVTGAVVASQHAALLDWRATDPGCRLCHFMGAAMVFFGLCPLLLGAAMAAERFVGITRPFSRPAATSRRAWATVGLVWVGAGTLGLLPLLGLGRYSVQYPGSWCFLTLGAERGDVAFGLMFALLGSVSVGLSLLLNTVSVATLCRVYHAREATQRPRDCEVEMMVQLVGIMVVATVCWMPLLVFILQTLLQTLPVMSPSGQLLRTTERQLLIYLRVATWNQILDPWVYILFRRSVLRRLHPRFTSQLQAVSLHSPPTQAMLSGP
The following applies: dose used (150 μg/kg/min); Schumacher et al. 1993; cited from earlier work.

Regarding `CC(=O)Oc1ccccc1C(=O)O` [aspirin], the “activity in vessel injury-induced venous thrombosis model” value in experiment [1] is “failure; also recorded: failed to inhibit thrombosis”; in experiment [1] (listed as Aspirin), “inactive”. For the same molecule, the “activity in uncomplicated venous thrombosis model” value in experiment [2] (aspirin) is “inactive”.

Take `COC(=O)[C@H](c1ccccc1Cl)N1CCc2sccc2C1` [clopidogrel, methyl (4)-(S)-α-(o-chlorophenyl)-6,7-dihydrothieno[3,2-c]pyridine-5-acetate]: the “effect on thrombus formation” value in experiment [3] (clopidogrel 2 mg/kg per day for 3 days) was “not sufficient to inhibit thrombus formation; also recorded: no effect”. Besides, the “decrease in thrombus weight” value in experiment [3] (clopidogrel 3 mg/kg orally once daily for 3 days) was 46%; in experiment [3] (clopidogrel 10 mg/kg orally once daily for 3 days), 72%; in experiment [3] (clopidogrel 20 mg/kg orally once daily for 3 days) it was 84%. In addition, the antithrombotic activity result in experiment [3] (clopidogrel 10 mg/kg), in experiment [6] and in experiment [7] (clopidogrel 10 mg/kg) was “good activity” in each case. In experiment [4], the “ex vivo whole blood coagulation tests” value was “unaffected”. Further, the inhibition at 20 mg/kg in experiment [5] (Rattus norvegicus, Platelet, 72 h, read-out: inhibition of ADP-induced aggregation) turned out to be 86%. In addition, the inhibition at 10 mg/kg in experiment [5] (Rattus norvegicus, Platelet, 72 h, read-out: inhibition of ex vivo platelet aggregation) is 50%. The “platelet shape change response to ADP” value in experiment [5] (clopidogrel 20 mg/kg daily for 3 days) is reported as “unaffected”. Also, the “antithrombotic efficacy compared across the thrombosis models” value in experiment [7] (dose-dependent comparison of three rat models) is given as “least effective”.

For `CCCCCNC(=O)c1coc(C2C3CCC(O3)C2Cc2ccccc2CCC(=O)O)n1` (stereo not drawn) [ifetroban, [1S-(1α,2α,3α,4α)]-2-[[3-[4-[(pentylamino)carbonyl]-2-oxazolyl]-7-oxabicyclo[2.2.1]hept-2-yl]methyl]benzenepropanoic acid], the “block of rat platelet thromboxane A2 receptors” value in experiment [8] is on record as no less than 99%. Also, the “effect on thrombus formation” value was “inactive; also recorded: no significant effect; also recorded: failure; also recorded: not effective” in experiment [3] (ifetroban alone, 150 μg/kg/min i.v. infusion from 15 min before FeCl2) and “failed to inhibit thrombosis” in experiment [3] (ifetroban alone, 150 μg/kg/min i.v. infusion from 15 min before FeCl2, listed as Ifetroban). For the same molecule, the “efficacy in uncomplicated venous thrombosis model” value in experiment [7] (ifetroban alone) is recorded as “effective; also recorded: intermediate efficacy”.

Regarding `CC(=O)CC(c1ccccc1)c1c(O)c2ccccc2oc1=O` (stereo not drawn) [warfarin], the INR in experiment [1] (at higher dose needed for comparable inhibition of vessel injury-induced venous thrombosis) is recorded as 9.5. The “PT ratio (INR)” value in experiment [2] (at dose giving ≧75% inhibition of stasis-induced thrombosis) is reported as 2.2.
